# How the values were obtained:
# Type in all cases: in vivo
# [1] = test system: bermudagrass (Cynodon dactylon); assay: Test C preemergence
# In short: (§1)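 Response scores (0 no effect to 100 complete control) came from visual comparison with untreated controls 12 to 14 days after treatment. Preemergence application was made to seeded soil; postemergence, to plants at the 1- to 4-leaf stage.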
# [2] = test system: morningglory (Ipomoea hederacea); assay: Test C preemergence
# In short: as §1
# [3] = test system: yellow nutsedge (Cyperus esculentus); assay: Test C preemergence
# In short: as §1
# corn (Zea mays) = assay: Test C preemergence
# In short: as §1
# Sunflower = assay: Test C preemergence; details: Rate 125 g/ha; scale 0 to 100, 0 no effect, 100 complete control
# [4] = test system: giant foxtail (Setaria faberii); assay: Test C preemergence
# In short: as §1
# [5] = test system: woolly cupgrass (Eriochloa villosa); assay: Test C preemergence
# In short: as §1
# [6] = test system: cocklebur (Xanthium strumarium); assay: Test C preemergence
# In short: as §1
# [7] = test system: velvetleaf (Abutilon theophrasti); assay: Test C preemergence
# In short: as §1
# [8] = test system: johnsongrass (Sorghum halepense); assay: Test C preemergence
# In short: as §1
# [9] = test system: Surinam grass (Brachiaria decumbens); assay: Test C preemergence
# In short: as §1
# [10] = test system: common ragweed (Ambrosia elatior); assay: Test C preemergence
# In short: as §1
# [11] = test system: lambsquarters (Chenopodium album); assay: Test C preemergence
# In short: as §1
# [12] = test system: crabgrass (Digitaria sanguinalis); assay: Test C preemergence
# In short: as §1
# kochia (Kochia scoparia) = assay: Test C preemergence
# In short: as §1
# [13] = test system: goosegrass (Eleusine indica); assay: Test C preemergence
# In short: as §1
# Nightshade = assay: Test C preemergence
# soybean (Glycine max) = assay: Test C preemergence
# In short: as §1
# [14] = test system: pigweed (Amaranthus retroflexus); assay: Test C preemergence
# In short: as §1
# [15] = test system: barnyardgrass (Echinochloa crus-galli); assay: Test C flooded paddy test; details: for Barnyardgrass plant response rating: Flooded Paddy, scale 0 to 100, 0 no effect, 100 complete control; for Plant response rating, Barnyardgrass / Plant response rating (scale 0 to 100), Barnyardgrass: flooded paddy test; for Plant response rating, Barnyardgrass: scale 0 to 100 (0 no effect, 100 complete control)
# In short: (§2)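 Response on a 0-to-100 scale (no effect to complete control) was assessed by eye versus controls. Plants had reached 2 leaves when treated in flooded paddy conditions. The assessment took place after 12–14 days of greenhouse growth.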
# [16] = test system: smallflower flatsedge (Cyperus difformis); assay: Test C flooded paddy test; details: for Flatsedge plant response rating: Flooded Paddy, scale 0 to 100, 0 no effect, 100 complete control; for Plant response rating, Flatsedge / Plant response rating (scale 0 to 100), Flatsedge: flooded paddy test; for Plant response rating, Flatsedge: scale 0 to 100 (0 no effect, 100 complete control)
# In short: as §2
# [17] = test system: duck salad (Heteranthera limosa); assay: Test C flooded paddy test; details: for Ducksalad plant response rating: Flooded Paddy, scale 0 to 100, 0 no effect, 100 complete control; for Plant response rating, Ducksalad / Plant response rating (scale 0 to 100), Ducksalad: flooded paddy test; for Plant response rating, Ducksalad: scale 0 to 100 (0 no effect, 100 complete control)
# In short: as §2
# [18] = Rate 125 g/ha, scale 0 to 100, 0 no effect, 100 complete control
# [19] = preemergence, Rate 62 g/ha, scale 0 to 100
# [20] = preemergence, Rate 500 g/ha, visual evaluation after 12 to 14 days
# [21] = preemergence, Rate 250 g/ha, scale 0 to 100, 0 no effect, 100 complete control
# [22] = Rate 16 g/ha, visually evaluated after 12 to 14 days, 0 = no effect, 100 = complete control
# [23] = under head Rate 16 g/ha, (own rate not given), after 12 to 14 days
smiles,measurement,setting,value
CCCC(C)c1ccn(C2OCN(c3cccc(OC(F)(F)F)c3)C2=O)n1 (stereo not drawn) [Compound 91],"Plant response rating, Bermudagrass",[1]; [18],100
same,"Plant response rating, Bermudagrass",[1]; [19],10
same,"Plant response rating (0 to 100 where 0 is no effect and 100 is complete control), Bermudagrass",[1]; [20],100
same,"Plant response rating, Bermudagrass",[1]; [21],100
same,"Plant response rating, Morningglory",[2]; [18],0
same,"Plant response rating, Morningglory",[2]; [19],0
same,"Plant response rating (0 to 100), Morningglory",[2]; [20],0
same,"Plant response rating, Morningglory",[2]; [21],0
same,"Plant response rating, Nutsedge",[3]; [18],0
same,"Plant response rating, Nutsedge",[3]; [19],0
same,"Plant response rating (0 to 100), Nutsedge",[3]; [20],0
same,"Plant response rating, Nutsedge",[3]; [21],0
same,"Plant response rating, Corn",corn (Zea mays); [18],0
same,"Plant response rating, Corn",corn (Zea mays); [19],0
same,"Plant response rating (0 to 100), Corn",corn (Zea mays); [20],10
same,"Plant response rating, Corn",corn (Zea mays); [21],10
same,"Plant response rating, Sunflower",Sunflower,0
same,"Plant response rating, Foxtail, Giant",[4]; [18],30
same,"Plant response rating, Foxtail, Giant",[4]; [19],10
same,"Plant response rating (0 to 100), Foxtail, Giant",[4]; [20],100
same,"Plant response rating, Foxtail, Giant",[4]; [21],30
same,"Plant response rating, Cupgrass, Woolly",[5]; [18],70
same,"Plant response rating, Cupgrass, Woolly",[5]; [19],10
same,"Plant response rating (0 to 100), Cupgrass, Woolly",[5]; [20],100
same,"Plant response rating, Cupgrass, Woolly",[5]; [21],90
same,"Plant response rating, Cocklebur",[6]; [18],0
same,"Plant response rating, Cocklebur",[6]; [19],0
same,"Plant response rating (0 to 100), Cocklebur",[6]; [20],10
same,"Plant response rating, Cocklebur",[6]; [21],0
same,"Plant response rating, Velvetleaf",[7]; [18],0
same,"Plant response rating, Velvetleaf",[7]; [19],0
same,"Plant response rating (0 to 100), Velvetleaf",[7]; [20],0
same,"Plant response rating, Velvetleaf",[7]; [21],0
same,"Plant response rating, Johnsongrass",[8]; [18],80
same,"Plant response rating, Johnsongrass",[8]; [19],20
same,"Plant response rating (0 to 100), Johnsongrass",[8]; [20],100
same,"Plant response rating, Johnsongrass",[8]; [21],90
same,"Plant response rating, Surinam grass",[9]; [18],30
same,"Plant response rating, Surinam grass",[9]; [19],0
same,"Plant response rating (0 to 100), Surinam grass",[9]; [20],80
same,"Plant response rating, Surinam grass",[9]; [21],30
same,"Plant response rating, Ragweed, Common",[10]; [18],0
same,"Plant response rating, Ragweed, Common",[10]; [19],0
same,"Plant response rating (0 to 100), Ragweed, Common",[10]; [20],0
same,"Plant response rating, Ragweed, Common",[10]; [21],0
same,"Plant response rating, Lambsquarters",[11]; [18],100
same,"Plant response rating, Lambsquarters",[11]; [19],90
same,"Plant response rating (0 to 100), Lambsquarters",[11]; [20],100
same,"Plant response rating, Lambsquarters",[11]; [21],100
same,"Plant response rating, Crabgrass",[12]; [18],100
same,"Plant response rating, Crabgrass",[12]; [19],100
same,"Plant response rating (0 to 100), Crabgrass",[12]; [20],100
same,"Plant response rating, Crabgrass",[12]; [21],100
same,"Plant response rating, Kochia",kochia (Kochia scoparia); [18],90
same,"Plant response rating, Kochia",kochia (Kochia scoparia); [19],20
same,"Plant response rating (0 to 100), Kochia",kochia (Kochia scoparia); [20],100
same,"Plant response rating, Kochia",kochia (Kochia scoparia); [21],90
same,"Plant response rating, Goosegrass",[13]; [18],100
same,"Plant response rating, Goosegrass",[13]; [19],90
same,"Plant response rating (0 to 100), Goosegrass",[13]; [20],100
same,"Plant response rating, Goosegrass",[13]; [21],100
same,"Plant response rating, Nightshade","Nightshade; Rate 62 g/ha, scale 0 to 100",0
same,"Plant response rating, Nightshade",Nightshade; [18],0
same,"Plant response rating, Nightshade","Nightshade; Rate 250 g/ha, scale 0 to 100, 0 no effect, 100 complete control",0
same,"Plant response rating, Soybean",soybean (Glycine max); [18],0
same,"Plant response rating, Soybean",soybean (Glycine max); [19],0
same,"Plant response rating (0 to 100), Soybean",soybean (Glycine max); [20],0
same,"Plant response rating, Soybean",soybean (Glycine max); [21],0
same,"Plant response rating, Pigweed",[14]; [18],0
same,"Plant response rating, Pigweed",[14]; [19],0
same,"Plant response rating (0 to 100), Pigweed",[14]; [20],100
same,"Plant response rating, Pigweed",[14]; [21],0
same,Barnyardgrass plant response rating,[15]; Rate 250 g/ha,100
same,Barnyardgrass plant response rating,[15]; Rate 500 g/ha,100
same,"Plant response rating, Barnyardgrass",[15]; Rate 62 g/ha,0
same,"Plant response rating, Barnyardgrass",[15]; Rate 125 g/ha,50
same,"Plant response rating (scale 0 to 100), Barnyardgrass",[15]; [22],0
same,"Plant response rating (scale 0 to 100), Barnyardgrass",[15]; [23],0
same,Flatsedge plant response rating,[16]; Rate 250 g/ha,100
same,Flatsedge plant response rating,[16]; Rate 500 g/ha,100
same,"Plant response rating, Flatsedge",[16]; Rate 62 g/ha,0
same,"Plant response rating, Flatsedge",[16]; Rate 125 g/ha,70
same,"Plant response rating (scale 0 to 100), Flatsedge",[16]; [22],0
same,"Plant response rating (scale 0 to 100), Flatsedge",[16]; [23],0
same,Ducksalad plant response rating,[17]; Rate 250 g/ha,90
same,Ducksalad plant response rating,[17]; Rate 500 g/ha,70
same,"Plant response rating, Ducksalad",[17]; Rate 62 g/ha,80
same,"Plant response rating, Ducksalad",[17]; Rate 125 g/ha,0
same,"Plant response rating (scale 0 to 100), Ducksalad",[17]; [22],0
same,"Plant response rating (scale 0 to 100), Ducksalad",[17]; [23],0
